Several values for one entry are separate records, joined by “and”; a condition that tells them apart may be missing. Equal entries are not always repeated. Structures can show the parent of a compound that is named as a salt.

This note sets out measurements from patent publication US9308210B2, “Method for modulating canonical Wnt pathway using folate and inositol” (University of South Florida, priority 2009, dated 2016).

Data set [1] concerns Hex and Islet-1 (Isl1) gene expression. Description: In situ hybridization of Hex and Isl1 in avian heart fields after Li, HCy or Wnt3A with or without FA. The format is in vivo, chick. The procedure: In situ hybridizations on control and experimentally manipulated chick embryos were carried out using digoxigenin-labeled riboprobes with alkaline phosphatase detection (Linask et al., 2001). Images of whole-mounted chick embryos were taken with a Nikon DS-L2 camera unit. Probes for chick Hex were provided by Parker Antin, University of Arizona and probes for chick Islet-1 (Isl1) were provided by Thomas Jessell, Columbia University, NY.
Chick embryos (HH stages 3+/4) were incubated on agarose albumin supplemented with HCy (50 μM). Instead of giving a single injection in ovo, embryos were exposed to HCy for 8 hours in order to define the effect on early cardiac gene expression. Another group of embryos were exposed to HCy for 24 hours at which time the effects on gene expression were determined. To analyze the effects during the looping stages, incubation was stopped after between 22 and 24 hours. After the 8-hour incubation, Li and HCy suppressed Hex and Isl1 expression in the cardiogenic crescent (FIG. 5).
The inventors next analyzed whether FA rescues the downregulation of Hex and Isl1. Chick embryos were exposed to Li, HCy or Wnt3A, as above, with and without 10 μg/ml of FA; the experiments were terminated after either an 8-hour or 24-hour exposure period, at which time in situ hybridizations for gene expression were performed. After 8 hours of exposure, Li, HCy and Wnt3A all suppressed Hex (FIGS. 9D, G, J) and Isl1 (FIGS. 10D, G, J) compared with the control embryonic expression patterns (FIG. 9A; FIG. 10A). […] Thus, FA supplementation suppressed the potentiation of the inhibitory Wnt signaling, allowing for normal induction of Hex and Isl1 gene expression.

For data set [2], the system named is neutral lipid droplets in heart and placenta. Description: Oil Red O staining of neutral lipid droplets in E15.5 heart and placenta. Conditions: for ORO neutral lipid localization in the placenta: labyrinth and maternal decidua. The format is in vivo, mouse. An excerpt: Oil Red O (ORO), a fat soluble dye, was used to detect neutral lipids (triglycerides, diacylglycerols, and cholesterol esters) in cryosectioned E15.5 cardiac and placental tissues. The staining methodology was followed as published. This method estimates tissue lipid content and localization (Mehlem et al., 2013). Lipid droplets stain red and nuclei blue. Polar lipids (phospholipids, sphingolipids and ceramides) are not stained (Fowler and Greenspan, 1985).

Another data set has as its system C57BL/6 mouse embryos. The experiment in a line: Doppler ultrasonography at E15.5 of mouse embryos exposed to Li or HCy on E6.75, FA rescue. The format is in vivo. Conditions: for Valve Regurgitation (percent of embryos): hydrochloride. An excerpt:
To determine whether the results in the avian system would extend to the mammalian system, the inventors conducted studies in the mouse embryo. All mice were maintained according to protocols approved by the Institutional Animal Care and Use Committee at the University of South Florida. The C57BL/6 mouse strain (Jackson Laboratories, Bar Harbor, Me.) was used throughout the study. E0.5 was defined as the morning when the vaginal sperm plug was detected. Timed pregnant mice were randomly allocated to receive a single dose of 100 μl of 6.25 mg/ml Li chloride, as determined previously (Chen et al., 2008), 100 μl of 75 μM HCy, or 100 μl of 6.25 mg/ml sodium chloride (control group); all treatments were given intraperitoneally (i.p). On E15.5, the utero-placental circulation of the pregnant mice, and the central and peripheral circulations of the embryos were examined non-invasively in utero using Doppler ultrasonography (Gui et al., 1996; Linask and Huhta, 2000). Sixty-eight embryos were exposed to Li, 59 to HCy and 42 to physiological saline.
An HCy concentration of 75 μM, used for maternal exposure, was determined empirically using different doses of HCy (i.e. 150, 75, 50 and 15 μM). The minimal teratogenic dose was determined to be 75 μM. […] The single i.p. injection of HCy at E6.75 produced a high number of valve defects (66%), as well as resorptions (46%). […] Because not all embryos within litters are at exactly the same stage of development, the variability of effects seen with either Li or HCy probably reflects the differences in developmental stage.
As a control diet (i.e. normal mouse chow), mice continued to receive 3.3 mg/kg of FA as the baseline to maintain the health of the female mice. […] The animal chow supplemented with 10.5 mg/kg of FA was prepared for us by Harlan Laboratories. As recommended by Harlan, the calculations for the FA level in the special diet are based on the metabolic body weight of mice. Because of the obvious large difference in body weight between humans and mice, and because of the large difference in metabolic rate, Harlan uses the metabolic weight as a method of scaling these differences between species; for mice this was calculated to be BW0.75 (i.e. metabolic weight equals body weight to the 0.75 power). Each mouse consumes approximately 4 g of chow per day; therefore, to obtain the desired dose of 10.5 mg/kg, the inventors added 7.2 mg/kg of FA to the normal 3.3 mg/kg that is present in commercial chow. […]
Doppler ultrasonographic examinations were carried out using the Philips Sonos 5500 (Andover, Mass.) with a 12 MHz transducer and, more recently, with a Vevo 770 (VisualSonics) system. Both instruments provided similar echo patterns. On E15.5, the pregnant mice were anesthetized using a Surgivet Tech 4 anesthesia system (Waukesha, Wis.) with inhalation anesthesia, consisting of 3% isoflurane, administered through a nose cone; the mice were then maintained on 1% isoflurane with 21% oxygen. The mother was placed supine on a heating pad with electrode footpads. The heart rate and temperature of the pregnant mice were monitored using a THM100 (Indus Instruments, Houston, Tex.) during scanning. The body temperature was maintained at 37° C.
Maternal uterine artery blood flow velocity waveforms were obtained and the pulsatility index was calculated. The embryos were visualized and their position mapped in each uterine horn. Blood flow in the heart and blood vessels was detected in each embryo using color Doppler, and blood flow velocity waveforms were obtained using pulsed wave Doppler. Once the embryonic heart was identified by color Doppler, the sample volume of the pulsed Doppler was placed over the entire heart to obtain blood velocities. The gate length was adjusted to completely insonate the beating embryonic heart. The high-pass filter was at its lowest setting of 50 Hz. […]

Setting [3] is: echo at E15.5 after exposure on E6.75.
[4] abbreviates: echo at E15.5 after single exposure on E6.75.
The mark [5] stands for this setting: median, E15.5 after exposure at E6.75.

For the compound `Nc1nc2ncc(CNc3ccc(C(=O)N[C@@H](CCC(=O)O)C(=O)O)cc3)nc2c(=O)[nH]1` [FA, folic acid], the “Hex and Isl1 gene expression with FA supplementation” value in data set [1] (embryos exposed to Li, HCy or Wnt3A, FA 10 μg/ml, 8 hours) is “normalized gene expression patterns”. Further, the “heart formation and Hex/Isl1 expression with FA supplementation” value in data set [1] (embryos exposed to Li, HCy or Wnt3A, FA 10 μg/ml, 24 hours) is “normal beating hearts had formed”. For the same compound, in data set [2], the “ORO neutral lipid localization in the placenta” value is “more normal organization of labyrinth”. Moreover, the “rescue of cardiac defects by baseline FA supplementation” value in the data set on C57BL/6 mouse embryos (3.3 mg/kg of FA in normal mouse chow) is recorded as “does not rescue cardiac defects”. Further, in the data set on C57BL/6 mouse embryos (FA i.p. on E6.75), the “normalization of exposure effects by FA provided on E6.75” value is recorded as “normalized the effects of HCy, but not Li”.
With `N[C@H]1CCSC1=O` [HCy, L-homocysteine thiolactone hydrochloride], the “Hex and Isl1 expression in the cardiogenic crescent” value in data set [1] (8 hours of exposure, HH stages 3+/4) was “suppressed”. Moreover, in data set [1] (by 24 hours of Li or HCy exposure), the Isl1 gene expression entry is recorded as “recovered”. Further, in data set [2], the “ORO staining of neutral lipids in the heart” value is “did not alter ORO staining in the trabeculae” and the “ORO neutral lipid localization in the placenta” value is recorded as “patch-like neutral lipid localization”. Moreover, in the data set on C57BL/6 mouse embryos (E15.5), the “outflow peak velocity, maximum mean value” is given as 84.0; the “outflow peak velocity, maximum value” came out at 84.00 cm/s; the “outflow peak velocity, minimum mean value” amounted to 18.5; the “outflow peak velocity, minimum value” was 18.53 cm/s. Further, in the data set on C57BL/6 mouse embryos (setting [3]), the “AV valve regurgitation, percent of embryos” value amounted to 10%; the “SL valve regurgitation, percent of embryos” value is 53%; the “both SL and AV valve regurgitation, percent of embryos” value is listed as 3%. In addition, in the data set with C57BL/6 mouse embryos (setting [4]), the “Valve Regurgitation (embryos affected/total)” value was 39/59; the “Valve Regurgitation (percent of embryos)” value is 66% and 66.1%. Further, the “Valve Regurgitation (percent of embryos)” value in the data set with C57BL/6 mouse embryos (echo at E15.5 after single exposure on E6.75, listed as HCys) was determined as 66.1%. The compound further showed a minimal teratogenic dose in the data set on C57BL/6 mouse embryos (maternal exposure, mouse, 150, 75, 50 and 15 μM tested) of 75 µM. In the data set with C57BL/6 mouse embryos (setting [5]), the “Embryonic A vel” value came to 40.14 cm/s, the “Embryonic Descending Aorta PI” value turned out to be 1.99, the “Embryonic Ductus Veno sus PI” value is recorded as 0.97 and the “Embryonic E vel” value turned out to be 12.25 cm/s. Moreover, in the data set on C57BL/6 mouse embryos (setting [5]), the “Embryonic E/A ratio” value stood at 0.30, the “Embryonic ET %” value stood at 42.51%, the “Embryonic Heart Rate” value was 181 beats/min and the “Embryonic ICT %” value is 6.56%. In addition, in the data set with C57BL/6 mouse embryos (setting [5]), the “Embryonic IRT %” value is reported as 11.93%, the “Embryonic MPI” value stood at 0.44, the “Embryonic OF peak velocity” value was 39.92 cm/s and the “Embryonic Umbilical Artery PI” value amounted to 1.55. In the data set with C57BL/6 mouse embryos (setting [5]), the “Maternal Heart Rate” value is “#458 beats/min” and the “Maternal Uterine Artery PI” value came out at 2.82. Further, the “valve defects after i.p. injection on E7.75” value with C57BL/6 mouse embryos (mouse, in vivo, ip) was “did not cause any valve defects”.
